{"source": "patent US5260271A", "about": "“Nisin compositions for use as enhanced broad range bactericides” (Applied Microbiology, Inc., priority 1992, dated 1993)", "key": {"[1]": {"test_system": "Streptococcus mutans", "experiment": "Bactericidal activity and kinetics towards Streptococcus mutans in Tris buffer", "format": "cell-based", "conditions": "S. mutans; pH 8.0, Nisin 0.1 μg/ml, EDTA 0 mM", "method": "(§6) All tests in the following examples were performed at 37° C. The efficacy of the enhanced broad range bactericides was determined by assaying bactericidal activity as measured by the percent bacterial survival after treatment with the bactericide. Generally, after incubation of a 10^7 cell per ml suspension of target species with the novel bactericide for specified lengths of time, bacteria were collected by centrifugation for 2 minutes. The bacterial pellet was washed free of the bactericide with a rescue buffer, termed herein Phage buffer (50mM Tris-HCl buffer pH 7.8, 1 mM MgSO4, 4 mM CaCl2, 0.1 M Nacl, and 0.1% gelatin), resuspended and serially diluted into Phage buffer, and 100 μl of the suspended bacteria were spread on nutrient agar plates. Surviving bacteria were determined by scoring colony forming units (CFU) after incubation for 24-48 hours at 37° C.\nThe suspensions were incubated for various times ranging from 0.5 to 60 minutes with the bactericides.\nIncubations were performed in 20 mM TrisHCl, pH 7.3 at 37° C."}, "[2]": {"test_system": "Staphylococcus aureus", "experiment": "Bactericidal activity towards Staphylococcus aureus, percent survival", "format": "cell-based", "conditions": "S. aureus, EDTA 0 mM", "procedure": "(§1) All tests in the following examples were performed at 37° C. The efficacy of the enhanced broad range bactericides was determined by assaying bactericidal activity as measured by the percent bacterial survival after treatment with the bactericide. Generally, after incubation of a 10^7 cell per ml suspension of target species with the novel bactericide for specified lengths of time, bacteria were collected by centrifugation for 2 minutes. […] Surviving bacteria were determined by scoring colony forming units (CFU) after incubation for 24-48 hours at 37° C. An effective bactericide according to this invention is one which allows less than 0.1% of the initial viable count of the bacteria to survive.\nIncubations were performed in 50 mM sodium acetate buffer, pH 5.0 or 20 m\nTrisHCl buffer, pH 8.0 at 37° C."}, "[3]": {"test_system": "Coryneform bacteria", "experiment": "Bactericidal activity towards Coryneform bacteria", "format": "cell-based", "conditions": "pH 8.0, Nisin 3 μg/ml, EDTA 0 mM", "procedure": "as §1\n(§2) Incubations were performed in 20 mM TrisHCl, pH 8.0 at 37° C."}, "[4]": {"test_system": "S. typhimurium on chicken muscle", "experiment": "Bactericidal activity towards S. typhimurium on chicken muscle (unadhered cells)", "format": "cell-based, Salmonella typhimurium", "conditions": "chicken muscle, EDTA 0 mM", "procedure": "Incubations were performed in either 50 mM sodium acetate, pH 5.0, or 20 mM Tris, pH 8.0 at 37° C.\nCubes of chicken muscle were cleansed with sodium hypochlorite and povidone iodine prior to use. To inoculate the tissue, the cubes of chicken muscle were dipped into a 10^8 cells/ml suspension of S. typhimurium in 20 mM Tris HCl, pH 8.0. Excess moisture was removed from dipped cubes by tapping. The chicken samples were placed into sufficient buffer containing the nisin composition to cover the tissue and incubated for 2 hours at 37° C. after which the tissue was removed to sufficient Phage buffer to cover the tissue. The bacteria remaining in the test solution were collected by centrifugation, washed with Phage buffer, and combined with bacteria washed from the tissue by Phage buffer. The combined samples (termed \"unadhered\" cells) were serially diluted and 100 μl aliquots were plated for determination of surviving bacteria.\n(§3) Cubes of chicken muscle were cleansed with sodium hypochlorite and povidone iodine prior to use. To inoculate the tissue, the cubes of chicken muscle were dipped into a 10^8 cells/ml suspension of S. typhimurium in 20 mM Tris HCl, pH 8.0. Excess moisture was removed from dipped cubes by tapping. The tissue was placed into sufficient buffer containing the nisin compositions to cover the tissue, and incubated for 2 hours at 37° C. after which the tissue was removed to sufficient Phage buffer to cover the tissue. The bacteria remaining in the test solution were collected by centrifugation, washed with Phage buffer, and combined with bacteria washed from the tissue by Phage buffer. The combined samples (termed \"unadhered\" cells) were serially diluted and 100 μl aliquots were plated for determination of surviving bacteria.\nas §3, with “cleaned” for “cleansed”, “50” for “20”, “sodium acetate buffer,” for “Tris HCl,”, “5.0.” for “8.0.”, “containing” for “containing the”"}, "[5]": {"test_system": "Listeria monocytogenes", "experiment": "Bactericidal activity towards Listeria monocytogenes in milk", "format": "cell-based", "conditions": "L. monocytogenes in milk at 37° C.; Nisin 100 μg/ml, Monooleate 0%", "procedure": "as §1\nAn example of where the application of nisin is limited by its available activity is illustrated by the data in Table 15B.\n(§4) Incubations were in milk at 37° C."}, "[6]": {"test_system": "E. coli", "experiment": "Bactericidal activity, percent bacterial survival of E. coli suspension", "format": "cell-based, Escherichia coli", "conditions": "EDTA 0 mM, Triton X-100 0%, 20 mM Tris pH 8.0", "procedure": "(§5) All tests in the following examples were performed at 37° C. The efficacy of the enhanced broad range bactericides was determined by assaying bactericidal activity as measured by the percent bacterial survival after treatment with the bactericide. Generally, after incubation of a 10^7 cell per ml suspension of target species with the novel bactericide for specified lengths of time, bacteria were collected by centrifugation for 2 minutes. […] Surviving bacteria were determined by scoring colony forming units (CFU) after incubation for 24-48 hours at 37° C.\nThe effects of the bactericide were measured as a function of percentage bacteria survival after 2 hours.\nIncubations were performed in 20 mM Tris, […] at 37° C."}, "[7]": {"test_system": "K. pneumoniae", "experiment": "Bactericidal activity, percent bacterial survival of K. pneumoniae suspension", "format": "cell-based, Klebsiella pneumoniae", "conditions": "EDTA 0 mM, 20 mM Tris pH 8.0", "procedure": "as §5\nThe effect was measured as a function of percentage bacterial survival after 2 hours."}, "[8]": {"test_system": "Streptococcus mutans", "experiment": "Rapid bactericidal activity towards Streptococcus mutans in the presence of divalent cation, 10% Fetal Calf Serum", "format": "cell-based", "conditions": "S. mutans, Nisin 3, no EDTA, 0 mM", "method": "as §6\nIncubations performed in 10% Fetal Calf Serum at 37° C."}, "[9]": {"test_system": "S. typhimurium", "experiment": "Bactericidal activity, percent bacterial survival of S. typhimurium suspension", "format": "cell-based, Salmonella typhimurium", "conditions": "for Percentage S. typhimurium Survival at 3 hours / % Survival at 2 hours: EDTA 0 mM", "procedure": "as §5\nThe control (Test #1) is identical to the control of Example 1 (Table 1)."}, "[10]": {"test_system": "Streptococcus agalactiae", "experiment": "Bactericidal activity towards Streptococcus agalactiae in milk", "format": "cell-based", "conditions": "for % survival at 2h: S. agalactiae in milk at 37° C., Monolaurin 0%", "procedure": "as §1\nHowever, the combination of the two agents, 0.1% monolaurin and nisin 0.2 μg/ml, is extremely potent towards S. agalactiae. […] Thus, when the application of nisin is limited by its available activity, a bactericide comprising nisin with a surfactant can be expected to be more useful.\nas §4"}, "[11]": {"test_system": "Listeria monocytogenes", "experiment": "Bactericidal activity towards Listeria monocytogenes in Tris buffer", "format": "cell-based", "conditions": "L. monocytogenes; pH 8.0, Nisin 3.0 μg/ml, EDTA 0 mM", "procedure": "as §1, §2"}}, "note": "Where no end group is shown, it is not given here.", "data": [{"substance": "Nisin (ITSISLCTPGCKTGALMGCNMKTATCHCSIHVSK; not fully specified (residues 2, 5, 33, bridges); cysteine pairing not given here; UniProt P13068 24-57, looked up) [polypeptide bacteriocin with antimicrobial properties produced by strains of Streptococcus lactis; known food preservative]", "values": [{"measurement": "% Survival after 2 hr", "setting": "[1]", "result": 4.3, "unit": "%"}, {"measurement": "% Survival 2 hr", "setting": "[2]; pH 5.0, Nisin 3.0 μg/ml", "result": 0.6, "unit": "%"}, {"measurement": "% Survival 2 hr", "setting": "[2]; pH 8.0, Nisin 3.0 μg/ml", "result": 7.4, "unit": "%"}, {"measurement": "% Survival 2 hr", "setting": "[3]", "result": 0.22, "unit": "%"}, {"measurement": "% Survival at 2 hours (Unadhered cells)", "setting": "[4]; pH 5.0, Nisin 300 μg/ml", "result": 0.1, "unit": "%"}, {"measurement": "% Survival at 2 hours (Unadhered cells)", "setting": "[4]; pH 8.0, Nisin 300 μg/ml, 1% Bovine serum albumin", "result": 0.02, "unit": "%"}, {"measurement": "% Survival at 2 hours (Unadhered cells)", "setting": "[4]; pH 8.0, Nisin 300 μg/ml", "result": 7.5, "unit": "%"}, {"measurement": "% Survival 2 hr", "setting": "[5]", "result": 0.56, "unit": "%"}, {"measurement": "Percentage E. coli Survival at 2 hours", "setting": "[6]; Nisin 30 μg/ml", "result": 27, "unit": "%"}, {"measurement": "Percentage E. coli Survival at 2 hours", "setting": "[6]; Nisin 100 μg/ml", "result": 25, "unit": "%"}, {"measurement": "Percentage E. coli Survival at 2 hours", "setting": "[6]; Nisin 300 μg/ml", "result": 8.5, "unit": "%"}, {"measurement": "% Survival at 2 hours", "setting": "[7]; Nisin 100 μg/ml", "result": 50, "unit": "%"}, {"measurement": "% Survival at 2 hours", "setting": "[7]; Nisin 300 μg/ml", "result": 38, "unit": "%"}, {"measurement": "% survival at 1 min.", "setting": "[8]", "result": 2.9, "unit": "%"}, {"measurement": "Percentage S. typhimurium Survival at 3 hours", "setting": "[9]; Nisin 50 µg/ml, 20 mM Tris pH 8.0, 37° C", "result": 7.0, "unit": "%"}, {"measurement": "Percentage S. typhimurium Survival at 3 hours", "setting": "[9]; Nisin 100 µg/ml, 20 mM Tris pH 8.0, 37° C", "result": 1.6, "unit": "%"}, {"measurement": "Percentage S. typhimurium Survival at 3 hours", "setting": "[9]; Nisin […], 20 mM Tris pH 8.0, 37° C", "result": 51.3, "unit": "%"}, {"measurement": "survival", "setting": "[9]; S. typhimurium, 100 μg/ml nisin in the absence of EDTA, 20 mM Tris pH 8.0", "result": 1.6, "unit": "%"}, {"measurement": "% Survival at 2 hours", "setting": "[9]; S. typhimurium, pH 5.0, Nisin 100 μg/ml", "result": 0.6, "unit": "%"}, {"measurement": "% Survival at 2 hours", "setting": "[9]; S. typhimurium, pH 8.0, Nisin 100 μg/ml", "result": 4, "unit": "%"}, {"measurement": "Percentage S. typhimurium Survival at 3 hours", "setting": "[9]; Table 2: Nisin 10 μg/ml, Triton X-100 0%, 20 mM Tris pH 8.0", "result": 51.3, "unit": "%"}, {"measurement": "Percentage S. typhimurium Survival at 3 hours", "setting": "[9]; Table 2: Nisin 50 μg/ml, Triton X-100 0%, 20 mM Tris pH 8.0", "result": 7.0, "unit": "%"}, {"measurement": "Percentage S. typhimurium Survival at 3 hours", "setting": "[9]; Table 2: Nisin 100 μg/ml, Triton X-100 0%, 20 mM Tris pH 8.0", "result": 1.6, "unit": "%"}, {"measurement": "Percentage S. typhimurium Survival at 3 hours", "setting": "[9]; Table 3: Nisin 10 μg/ml, Tween20 0%, 20 mM Tris pH 8.0", "result": 51.3, "unit": "%"}, {"measurement": "Percentage S. typhimurium Survival at 3 hours", "setting": "[9]; Table 3: Nisin 50 μg/ml, Tween20 0%, 20 mM Tris pH 8.0", "result": 7.0, "unit": "%"}, {"measurement": "Percentage S. typhimurium Survival at 3 hours", "setting": "[9]; Table 3: Nisin 100 μg/ml, Tween20 0%, 20 mM Tris pH 8.0", "result": 1.6, "unit": "%"}, {"measurement": "% Survival at 2 hours", "setting": "[9]; Table 8, S. typhimurium, Nisin 100 μg/ml, BSA 0%, Tris buffer", "result": 1.6, "unit": "%"}, {"measurement": "% survival at 2h", "setting": "[10]; Nisin 0.02 μg/ml", "result": 100, "unit": "%"}, {"measurement": "% survival at 2h", "setting": "[10]; Nisin 0.2 μg/ml", "result": 2.2, "unit": "%"}, {"measurement": "bactericidal activity towards Streptococcus agalactiae", "setting": "[10]; nisin at concentrations up to 0.2 μg/ml, in milk", "result": "does not exhibit significant bactericidal activity"}, {"measurement": "% Survival after 2 hr", "setting": "[11]", "result": 0.71, "unit": "%"}]}]}
